Laboratory results as given in publication PMC9394284, “Discovery of Novel Dual Adenosine A2A and A1 Receptor Antagonists with 1H-Pyrazolo[3,4-d]pyrimidin-6-amine Core Scaffold as Anti-Parkinson’s Disease Agents” (Pharmaceuticals, 2022).

Assays:
[1] = target: T1, hA1 receptor (Homo sapiens, UniProt P30542); assay: radioligand binding to human A1 receptors, CHO-K1 membranes, [3H]DPCPX
T1 sequence (P30542 1-326): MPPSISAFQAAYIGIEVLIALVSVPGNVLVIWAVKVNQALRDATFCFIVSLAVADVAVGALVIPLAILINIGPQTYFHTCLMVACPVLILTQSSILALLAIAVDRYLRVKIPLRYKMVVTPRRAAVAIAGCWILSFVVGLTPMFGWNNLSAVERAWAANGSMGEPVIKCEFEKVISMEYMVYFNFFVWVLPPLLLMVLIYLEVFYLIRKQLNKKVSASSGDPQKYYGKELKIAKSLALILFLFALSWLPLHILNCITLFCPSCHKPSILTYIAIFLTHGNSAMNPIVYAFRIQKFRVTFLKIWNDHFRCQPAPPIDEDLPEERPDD
Method: The radioligand-binding assays for adenosine receptors were performed at Eurofins Discovery Services (Panlabs, Taiwan). Briefly, stock solutions of the compounds were prepared in DMSO and further diluted with the incubation buffer to the desired concentration. Final DMSO concentrations in the assay were 1.0%. For adenosine A1 screening, a 10 μg aliquots of membrane preparations from human recombinant CHO-K1 cells stably expressing A1 receptors (CHO-K1-hA1AR clone3, EPDST, R200510) were incubated with 1 nM [^3H]DPCPX in incubation buffer (20 mM HEPES, pH 7.4, 10 mM MgCl2, 100 mM NaCl 1.40 nM) for 90 min at 25 °C. Nonspecific binding was estimated in the presence of 100 μM R(-)-PIA. Membranes were filtered and washed 3 times and the filters were counted to determine specifically bound [^3H]DPCPX. Chemical compounds were screened at 10 μM. For A2A screening, membrane preparations from human recombinant HEK-293 cells stably expressing A2A receptors (PerkinElmer, RBHA2AM) were incubated with 0.05 μM [^3H]CGS-21680 in incubation buffer (50 mM Tris-HCl, pH 7.4, 10 mM MgCl2, 1 mM EDTA, 2 U/mL Adenosine Deaminase) for 90 min at 25 °C. Nonspecific binding was estimated in the presence of 50.0 μM NECA. Membranes were filtered and washed 3 times and the filters were counted to determine [^3H]CGS-21680 specifically bound. For A2B screening, membrane preparations from human recombinant HEK-293 cells stably expressing A2B receptors (PerkinElmer, ES-013-M) were incubated with 1.6 nM [^3H]MRS1754 in incubation buffer (50 mM Tris-HCl, pH 6.5, 5 mM MgCl2, 1 mM EDTA, 0.01 % Bacitracin) for 90 min at 25 °C. Nonspecific binding was estimated in the presence of 100 μM NECA. Membranes were filtered and washed 3 times and the filters were counted to determine [^3H]MRS1754 specifically bound. For A3 screening, membrane preparations from human recombinant CHO-K1 cells stably expressing A3 receptors (PerkinElmer, ES-012-M) were incubated with 0.5 nM [^125I]AB-MECA in incubation buffer (25 mM HEPES, pH 7.4, 5 mM MgCl2, 1 mM CaCl2, 0.1 % BSA) for 60 min at 25 °C. Nonspecific binding was estimated in the presence of 1.0 μM IB-MECA.
IC50 values were determined by a nonlinear, least-squares regression analysis using MathIQ^TM (ID Business Solutions Ltd., Guildford, UK). Where inhibition constants (Ki) were presented, the Ki values were calculated using Cheng and Prusoff equation [18] using the observed IC50 of the compound, the concentration of radioligand employed in the assay, and the historical values for the KD of the ligand (obtained experimentally at Eurofins Panlabs, Inc.). The Hill coefficient (nH), which defines the slope of the competitive binding curve, was calculated using MathIQ^TM.

[2] = target: T2, hA2A receptors (Homo sapiens, UniProt P29274); assay: radioligand binding to human A2A receptors, HEK-293 membranes
T2 construct: purchased PerkinElmer RBHA2AM
T2 sequence (P29274 whole entry): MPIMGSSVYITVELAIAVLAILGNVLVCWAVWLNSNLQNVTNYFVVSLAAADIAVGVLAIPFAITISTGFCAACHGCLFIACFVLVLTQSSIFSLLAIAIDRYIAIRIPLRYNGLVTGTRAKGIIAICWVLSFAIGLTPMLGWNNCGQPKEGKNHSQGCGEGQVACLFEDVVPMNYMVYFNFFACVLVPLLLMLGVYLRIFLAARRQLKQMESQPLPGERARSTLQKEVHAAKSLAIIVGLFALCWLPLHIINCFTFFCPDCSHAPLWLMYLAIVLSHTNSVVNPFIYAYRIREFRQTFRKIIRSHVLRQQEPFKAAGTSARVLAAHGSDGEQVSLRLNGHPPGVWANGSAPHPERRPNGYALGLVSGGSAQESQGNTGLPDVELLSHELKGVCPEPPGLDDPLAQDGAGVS
Method: The binding affinities of synthesized compounds to human A2A receptors (hA2AR) were measured by assessing competitive binding of ligands to radioligand […] using membrane preparations of human recombinant HEK-293 cells expressing human A2A receptors.
The radioligand-binding assays for adenosine receptors were performed at Eurofins Discovery Services (Panlabs, Taiwan). Briefly, stock solutions of the compounds were prepared in DMSO and further diluted with the incubation buffer to the desired concentration. Final DMSO concentrations in the assay were 1.0%. […] Nonspecific binding was estimated in the presence of 100 μM R(-)-PIA. Membranes were filtered and washed 3 times and the filters were counted to determine specifically bound [^3H]DPCPX. Chemical compounds were screened at 10 μM. […] Nonspecific binding was estimated in the presence of 50.0 μM NECA. […] Nonspecific binding was estimated in the presence of 100 μM NECA. Membranes were filtered and washed 3 times and the filters were counted to determine [^3H]MRS1754 specifically bound. […] Nonspecific binding was estimated in the presence of 1.0 μM IB-MECA.
IC50 values were determined by a nonlinear, least-squares regression analysis using MathIQ^TM (ID Business Solutions Ltd., Guildford, UK). […] The Hill coefficient (nH), which defines the slope of the competitive binding curve, was calculated using MathIQ^TM.

[3] = metabolic stability in cryopreserved mouse hepatocytes
Method: Metabolic stability of 11o was determined in cryopreserved hepatocytes from mice, rats, dogs, monkeys and human according to the SOPs of Frontage Laboratories Inc. Briefly, cryopreserved hepatocytes for pre-clinical animals and for human (BioIVT, Westbury, NY, USA) were thawed in a 37 °C water bath with gentle shaking until ice had almost melted. The suspensions were immediately transferred to a centrifuge tube (50 mL) containing pre-warmed thawing media at 37 °C with gentle handshaking to prevent the cells from settling. Cell suspensions were centrifuged at 50× g and 4 °C for 5 min. The supernatant was discarded and the pellets were resuspended in prewarmed incubation media (5 mL) at 37 °C. The percentage of viable cells in the suspension was determined by Trypan blue staining method to ensure viability of ≥70 %. […] The samples were centrifuged and aliquots of the supernatant were analyzed for parent compounds by LC/MS/MS using suitable multiple reaction monitoring (MRM) transitions. […] The disappearance of 11o and midazolam was monitored by LC/MS/MS (MRM) analysis of the hepatocyte extracts at each time point. The peak area ratio of the analyte to internal standard was obtained for each sample and the rate of disappearance of 11o was assessed by comparing the peak area ratios at various time points to the peak area ratio obtained at t = 0. The t1/2 is obtained (using the linear portion of semi-log plot of the area ratio vs. time) and the CLint values determined using well-stirred model.

[4] = average of duplicate experiments
[5] = CD-1, mouse, cryopreserved hepatocytes in suspension

## Cc1cc(Cn2ncc3c(-c4cccc(C#N)c4F)nc(N)nc32)ccc1N [11o, 3-(6-Amino-1-(4-amino-3-methylbenzyl)-1H-pyrazolo[3,4-d]pyrimidin-4-yl)-2-fluorobenzonitrile]
[1]
  nH (Hill coefficient), A1: 1.17
[1]; [4]
  IC50: 94 nM
  Ki: 55 nM
[2]
  nH (Hill coefficient), A2A: 0.79
[2]; [4]
  IC50: 24 nM
  Ki: 13.3 nM
[3]; [5]
  CLint scaled at 1 μM: 115 mL/min/kg
  half-life at 1 μM: 1.18 h
  hepatocyte CLint at 1 μM: 9.8 µL/min/1e6 cells
[3]; mouse hepatocytes, 1 μM 11o
  Intrinsic Clearance: 0.00977 mL/min/10^6 Cells
